Series [1] has as its system clinical breast cancer specimens from untreated patients. Particulars: cited from earlier work.
The test system of series [2] is MDA-MB-231. Particulars: ER− MDA-MB-231; cited from earlier work.
In series [3] the test system is HT29 human colon carcinoma. The series is described as follows: MTT cell growth inhibition, HT29. In kind it is cell-based. Particulars: 5-10 days incubation. Here is the method:
(§1) Elsamitrucin and Elsamitrucin tosylate were tested in vitro using: B16F10 (murine […]), HCT 116 (human colon), HT29 (human colon) and SK-MES-1 (human non-small cell lung carcinoma ). Cell growth inhibition was evaluated in 96-well micro-culture plates with a semi-automated MTT (3-(4,5-dimethylthiazol-2-yl)-2,5-diphenyltetrazolium bromide) assay.
(§2) SK-MES-1 human non-small cell lung carcinoma, B16F10 murine melanoma cells, HCT 116 and HT29 human colon carcinomas (collectively “test cell cultures”) were maintained in buffered RPMI 1640 supplemented with fetal calf serum, antibiotics and other appropriate growth factors such as glutamine. Test cells (1,500-2,000 cells/well) were seeded in a 96-well micro culture plate with a total volume of 100 μL/well. After overnight incubation in a humidified incubator at 37° C. with 5% CO2 and 95% air, elsamitrucin solutions were diluted to various concentrations with RPMI 1640, were added to each well in a 100 μL volume. The elsamitrucin base and the elsamitrucin tosylate solutions (elsamitrucin solutions) were prepared and stored in a −20° C. freezer. The solutions were thawed not more than 10 times for the entire experiment.
(§3) Cell culture plates seeded with test cells and various concentrations of elsamitrucin solutions were placed in a humidified incubator at 37° C., with CO2 and 95% air for 5-10 days. […]

Series [4] relates to MCF7. The note with it: ER+ MCF7; cited from earlier work.
Series [5] concerns HCT 116 human colon carcinoma. The series is described as follows: MTT cell growth inhibition, HCT 116. The format is cell-based. Particulars: 5-10 days incubation. The procedure: as §1, §2, §3
In series [6] the test system is patients with refractory/relapsed non-Hodgkin's lymphoma. Particulars: cited from earlier work.
For series [7], the system named is MCF7DX. Particulars: MCF7DX subline; cited from earlier work.
Series [8] has as its system B16F10 murine melanoma cells. Description: MTT cell growth inhibition, B16F10. The format is cell-based. Particulars: 5-10 days incubation. The procedure: as §1, §2, §3
The test system of series [9] is SK-MES-1 human non-small cell lung carcinoma. Description: MTT cell growth inhibition, SK-MES-1. The format is cell-based. Particulars: 5-10 days incubation. The procedure: as §1, §2, §3

The term IC50 denotes the concentration that inhibits the measured activity by half. Low readings indicate greater potency in that assay, high ones weaker potency in that assay.

Like-named read-outs stand apart in the source and are kept apart here.

“benzo(h)(1)benzopyrano(5,4,3-cde)(1)ebnzopyran-5,12-dione,10((2-O-(2-amino-2,6-dideoxy-3-O-methyl-alpha-D-galactopyranosyl)-6-deoxy-3-C-methyl-beta-D-galactopyranosyl)oxy)-6-hydroxy-1-methyl [Elsamitrucin]”: the minimal inhibiting concentration is given as 0.1 micrograms/ml in [1] (ER+ tumors) and 3.5 micrograms/ml in series [1] (ER− tumors). Moreover, the IC50 antiproliferative effect is reported as 0.21 micrograms/ml in [2] and 0.25 micrograms/ml in [4]. Besides, the IC50 in series [3] came to 0.095 µM; in [5], 0.074 µM; in series [8] it was 0.024 µM; in series [9], 0.042 µM. In addition, the elsamitrucin-associated toxicity result in series [6] was “relatively mild”. The myelosuppression entry in series [6] was “did not include myelosuppression”. Also, in series [7], the “cross-resistance to doxorubicin (DX)” value was “cross-resistant to DX”.
